Laboratory results published in US20090221829A1 (priority 2005, published 2009).
Values after ≈ are worked out from the molar mass of the structure shown.

How the values were obtained:
various kinds of Candida = assay: MIC (Minimal Inhibitory Concentration) data; type: cell-based; conditions: unit assumed
[1] = test system: Candida albicans(KCTC 1940), Aspergillus niger (ATCC 9642) and Saccharomyces cerevisiae; assay: Relative antifungal activity by agar dilution method (vs Miconazole); type: cell-based;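 further: scores 5 to 7 mean a lower fungicidal concentration than Miconazole so higher is more potent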
Text: Novel compounds represented by the above chemical formula (I), and the relative activities in accordance with the agar dilution method in Sabouraud dextrose agar media, Czapek agar media and Yeast Extract-Peptone-Dextrose agar media for Candida albicans(KCTC 1940), Aspergillus niger (ATCC 9642) and Saccharomyces cerevisiae are described respectively in following Table 1.

[2] = agar dilution method, fungicidal concentration relative to control drug Miconazole (=4)
[3] = antifungal activity relative to Miconazole, agar dilution

| SMILES | Relative Activity [1, 2] | further results |
| --- | --- | --- |
| C[C@@H]1[C@H](O)[C@@H](C)/C=C/C=C/C=C/C=C/C=C/C=C/C=C/[C@H](O[C@@H]2O[C@H](C)[C@@H](O)[C@H](N)[C@@H]2O)C[C@@H]2O[C@](O)(C[C@@H](O)C[C@@H](O)[C@H](O)CC[C@@H](O)C[C@@H](O)CC(=O)O[C@H]1C)C[C@H](O)[C@H]2C(=O)O [Amphotericin B, reference compound] |  | MIC (various kinds of Candida; C. albicans ATCC 11651): 1.56 µg/mL (≈ 1.69 µM); MIC (various kinds of Candida; C. albicans ATCC 28838): 3.12 µg/mL (≈ 3.38 µM); MIC (various kinds of Candida; C. albicans IFO 1385): 1.56 µg/mL (≈ 1.69 µM); MIC (various kinds of Candida; C. albicans OY-003): 0.78 µg/mL (≈ 0.844 µM); MIC (various kinds of Candida; C. albicans OY-019): 0.4 µg/mL (≈ 0.433 µM); MIC (various kinds of Candida; C. albicans U.K): 3.12 µg/mL (≈ 3.38 µM); MIC (various kinds of Candida; C. albicnas ATCC 10231): 1.56 µg/mL (≈ 1.69 µM); MIC (various kinds of Candida; C. glabrata): 1.56 µg/mL (≈ 1.69 µM); MIC (various kinds of Candida; C. glulliermondi): 1.56 µg/mL (≈ 1.69 µM); MIC (various kinds of Candida; C. krusei (KCTC7273)): 0.78 µg/mL (≈ 0.844 µM); MIC (various kinds of Candida; C. parapsilosis): 3.12 µg/mL (≈ 3.38 µM) |
| CCCCCC1=[N+](Cc2ccccc2F)CCc2cc(OC)ccc21.[Cl-] [Compound No. 85, 1-n-pentyl-2-(2-fluorophenyl)methyl-3,4-dihydro-6-methoxyisoquinolinium chloride] | 5 |  |
| CCCCCCC1=[N+](Cc2ccccc2F)CCc2cc(OC)ccc21.[Cl-] [Compound No. 86, 1-n-hexyl-2-(2-fluorophenyl)methyl-3,4-dihydro-6-methoxyisoquinolinium chloride] | 5 |  |
| CCCCCCCC1=[N+](Cc2ccccc2F)CCc2cc(OC)ccc21.[Cl-] [Compound No. 87, 1-n-heptyl-2-(2-fluorophenyl)methyl-3,4-dihydro-6-methoxyisoquinolinium chloride] | 5 |  |
| CCCCCCCCCCCC1=[N+](Cc2ccccc2F)CCc2cc(OC)ccc21.[Cl-] [Compound No. 88, 1-n-undecyl-2-(2-fluorophenyl)methyl-3,4-dihydro-6-methoxyisoquinolinium chloride] | 2 |  |
| CCCCCCCCCCCCCCCC1=[N+](Cc2ccccc2F)CCc2cc(OC)ccc21.[Cl-] [Compound No. 89, 1-n-pentadecyl-2-(2-fluorophenyl)methyl-3,4-dihydro-6-methoxyisoquinolinium chloride] | 1 |  |
| COc1ccc2c(c1)CC[N+](Cc1ccccc1F)=C2c1ccccc1F.[Cl-] [Compound No. 90, 1-(2-fluorophenyl)-2-(2-fluorophenyl)methyl-3,4-dihydro-6-methoxyisoquinolinium chloride] | 6 |  |
| COc1ccc2c(c1)CC[N+](Cc1ccccc1F)=C2c1ccc(C(C)(C)C)cc1.[Cl-] [Compound No. 91, 1-(4-t-butylphenyl)-2-(2-fluorophenyl)methyl-3,4-dihydro-6-methoxyisoquinolinium chloride] | 6 |  |
| CC1=[N+](Cc2ccc(C(F)(F)F)cc2)CCc2cc3c(cc21)OCO3.[Cl-] [Compound No. 107, 1-methyl-2-(4-trifluoromethylphenyl)methyl-3,4-dihydro-6,7-methylenedioxyisoquinolinium chloride] | 6 |  |
| CCCCCCCC1=[N+](Cc2ccc(C(F)(F)F)cc2)CCc2cc3c(cc21)OCO3.[Cl-] [Compound No. 108, 1-n-heptyl-2-(4-trifluoromethylphenyl)methyl-3,4-dihydro-6,7-methylenedioxyisoquinolinium chloride] | 4 |  |
| CCCCCCCCCCCCCCCC1=[N+](Cc2ccc(C(F)(F)F)cc2)CCc2cc3c(cc21)OCO3.[Cl-] [Compound No. 109, 1-n-pentadecyl-2-(4-trifluoromethylphenyl)methyl-3,4-dihydro-6,7-methylenedioxyisoquinolinium chloride] | 1 |  |
| CC(C)(C)c1ccc(C2=[N+](Cc3ccc(C(F)(F)F)cc3)CCc3cc4c(cc32)OCO4)cc1.[Cl-] [Compound No. 110, 1-(4-t-butylphenyl)-2-(4-trifluoromethylphenyl)methyl-3,4-dihydro-6,7-methylenedioxyisoquinolinium chloride] | 6 |  |
| CCCCCCCC1=[N+](Cc2ccc(F)c(F)c2)CCc2cc3c(cc21)OCO3.[Cl-] [Compound No. 112, 1-n-heptyl-2-(3,4-difluorophenyl)methyl-3,4-dihydro-6,7-methylenedioxyisoquinolinium chloride] | 4 |  |
| CCCCCCCCCCCCCCCC1=[N+](Cc2ccc(F)c(F)c2)CCc2cc3c(cc21)OCO3.[Cl-] [Compound No. 113, 1-n-pentadecyl-2-(3,4-difluorophenyl)methyl-3,4-dihydro-6,7-methylenedioxyisoquinolinium chloride] | 1 |  |
| CC(C)(C)c1ccc(C2=[N+](Cc3ccc(F)c(F)c3)CCc3cc4c(cc32)OCO4)cc1.[Cl-] [Compound No. 114, 1-(4′-t-butylphenyl)-2-(3,4-difluorophenyl)methyl-3,4-dihydro-6,7-methylenedioxyisoquinolinium chloride] | 6 |  |
| CCCCCCCCCCCC1=[N+](c2ccc(C(C)(C)C)cc2)CCc2cc(CNC(=O)OCC)c(OC)cc21.[Br-] [Compound No. 116, ethyl 3,4-dihydro-7-methoxy-6-(4-t-butylphenyl)-1-undecylisoquinolinium-6-ylmethylcabamate bromide] | 2 |  |
| CCCCCCCCCCCC1=[N+](c2ccc(C(F)(F)F)cc2)CCc2cc(CNC(=O)OCC)ccc21.[Br-] [Compound No. 117, Ethyl 3,4-dihydro-1-undecylisoquinolinium-2-(4-trifluoromethylphenyl)-6-ylmethylcabamate bromide] | 4 |  |
| CCCCCCCCCCCC1=[N+](Cc2ccc(NC(=O)OCC)c(NC(=O)OCC)c2)CCc2cc(OC)c(OC)cc21.[Cl-] [Compound No. 122, 6,7-dimethoxy-2-(3,4-bis(ethoxy Carbonylamino)phenyl)methyl-3,4-dihydro-1-undecylisoquinolinium chloride] | 2 |  |
| CCCC1=[N+](Cc2ccc(C(C)(C)C)cc2)CCc2cc(OC)c(OC)cc21.[Cl-] [Compound No. 123, 1-propyl-2-(4-t-butylphenyl)methyl-3,4-dihydro-6,7-dimethoxyisoquinolinium chloride] | 6 |  |
| COc1cc2c(cc1OC)C(CCc1ccc(C(C)(C)C)cc1)=[N+](Cc1ccccc1F)CC2 [Compound No. 124, 1-(2-(4-t-butylphenyl))ethyl-2-(2-fluorophenyl)methyl-3,4-dihydro-6,7-dimethoxyisoquinolinium chloride] | 2 |  |
| COc1ccc(C[N+]2=C(CCc3ccc(C(C)(C)C)cc3)c3cc(OC)c(OC)cc3CC2)cc1OC [Compound No. 125, 1-(2-(4-t-butylphenyl))ethyl-2-(3,4-dimethoxyphenyl)methyl-3,4-dihydro-6,7-dimethoxyisoquinolinium chloride] | 2 |  |
| COc1cc2c(cc1OC)C(CCc1ccc(C(C)(C)C)cc1)=[N+](Cc1ccc(C(F)(F)F)cc1)CC2.[Cl-] [Compound No. 129, 1-(2-(4-t-butylphenyl))ethyl-2-(4-trifluoromethylphenyl)methyl-3,4-dihydro-6,7-dimethoxy isoquinolinium chloride] | 4 |  |
| COc1cc2c(cc1OC)C(CCc1ccc(C(C)(C)C)cc1)=[N+](Cc1c(F)c(F)c(F)c(F)c1F)CC2.[Cl-] [Compound No. 130, 1-(2-(4-t-butylphenyl))ethyl-2-(2,3,4,5,6-pentafluorophenyl)methyl-3,4-dihydro-6,7-dimethoxy isoquinolinium chloride] | 4 |  |
| COc1cc2c(cc1OC)C(CCc1ccc(C(C)(C)C)cc1)=[N+](Cc1c(F)c(F)c(C(F)(F)F)c(F)c1F)CC2.[Cl-] [Compound No. 131, 1-(2-(4-t-butylphenyl))ethyl-2-(2,3,5,6-tetrafluoro-4-trifluoromethylphenyl)methyl-3,4-dihydro-6,7-dimethoxy isoquinolinium chloride] | 4 |  |
| COc1cc2c(cc1OC)C(CCc1ccc(C(C)(C)C)cc1)=[N+](Cc1cccc(OC)c1OCc1c(F)cccc1Cl)CC2 [Compound No. 133, 1-(2-(4-t-butylphenyl))ethyl-2-(2-(2-chloro-6-fluorobenzyloxy)-3-methoxyphenyl)methyl-3,4-dihydro-6,7-dimethoxyisoquinolinium chloride] | 1 |  |
| COc1cc2c(cc1OC)C(CCc1ccc(C(C)(C)C)cc1)=[N+](Cc1cccc(OC)c1OCc1cccc(OC)c1OC)CC2.[Cl-] [Compound No. 136, 1-(2-(4-t-butylphenyl))ethyl-2-(2-(2,3-dimethoxybenzyloxy)-3-methoxyphenyl)methyl-3,4-dihydro-6,7-dimethoxy isoquinolinium chloride] | 4 |  |
| CCCCCCCCCCCC1=[N+](Cc2ccc(C(F)(F)F)cc2)CCc2cc(F)ccc21.[Cl-] [Compound No. 137, 1-undecyl-2-(4-trifluoromethylphenyl)methyl-3,4-dihydro-6-fluoro isoquinolinium chloride] | 1 |  |
| COc1cc2cc[n+](Cc3c(F)cccc3Cl)cc2cc1OC.[Cl-] [Compound No. 141, 2-(2-chloro-6-fluorophenyl)methyl-6,7-dimethoxyisoquinolinium chloride] |  | Relative Activity [1, 3]: 6 |
| COc1cc2cc[n+](Cc3ccc(C(C)(C)C)cc3)cc2cc1OC.[Cl-] [Compound No. 142, 2-(4-t-butylphenyl)methyl-6,7-dimethoxy-isoquinolinium chloride] |  | Relative Activity [1, 3]: 6 |
| CCCCCCCCCCCc1c2cc(OC)c(OC)cc2cc[n+]1Cc1ccc(C(C)(C)C)cc1.[Cl-] [Compound No. 146, 1-undecyl-2-(4-t-butylphenyl)methyl-6,7-dimethoxyisoquinolinium chloride] |  | Relative Activity [1, 3]: 2 |
